From the kinase profiling compilation of Christmann-Franck et al. (2016)

Tests used:
Assay in all cases: radiometric filter-binding kinase assay
[1] = test system: AKT2 (human), P31751 [S474D]; settings: compound 100.0 µM; ATP 50 µM
BRSK1 (human) = BRSK1 (human) (UniProt Q8TDC3); settings: compound 100.0 µM; ATP 20 µM
BTK (human) = BTK (human) (UniProt Q06187); settings: compound 100.0 µM; ATP 50 µM
CAMKK2 (human) = CAMKK2 (human) (UniProt Q96RR4); settings: compound 100.0 µM; ATP 20 µM
CHEK1 (human) = CHEK1 (human) (UniProt O14757); settings: compound 100.0 µM; ATP 20 µM
CSK (human) = CSK (human) (UniProt P41240); settings: compound 100.0 µM; ATP 20 µM
CSNK2A1 (human) = CSNK2A1 (human) (UniProt P68400); settings: compound 100.0 µM; ATP 5 µM
DYRK1A (human) = DYRK1A (human) (UniProt Q13627); settings: compound 100.0 µM; ATP 50 µM
DYRK3 (human) = DYRK3 (human) (UniProt O43781); settings: compound 100.0 µM; ATP 5 µM
EPHB1 (human) = EPHB1 (human) (UniProt P54762); settings: compound 100.0 µM; ATP 20 µM
ERBB4 (human) = ERBB4 (human) (UniProt Q15303); settings: compound 100.0 µM; ATP 5 µM
HIPK1 (human) = HIPK1 (human) (UniProt Q86Z02); settings: compound 100.0 µM; ATP 20 µM
IGF1R (human) = IGF1R (human) (UniProt P08069); settings: compound 100.0 µM; ATP 5 µM
IKBKB (human) = IKBKB (human) (UniProt O14920); settings: compound 100.0 µM; ATP 5 µM
INSR (human) = INSR (human) (UniProt P06213); settings: compound 100.0 µM; ATP 20 µM
IRAK4 (human) = IRAK4 (human) (UniProt Q9NWZ3); settings: compound 100.0 µM; ATP 20 µM
JAK2 JH1 JH2 (human) = JAK2 JH1 JH2 (human) (UniProt O60674); settings: compound 100.0 µM; ATP 5 µM
MAP2K1 (human) = MAP2K1 (human) (UniProt Q02750); settings: compound 100.0 µM; ATP 5 µM
MAP2K2 (human) = MAP2K2 (human) (UniProt P36507); settings: compound 100.0 µM; ATP 5 µM
MAP3K1 (human) = MAP3K1 (human) (UniProt Q13233); settings: compound 100.0 µM; ATP 50 µM
MAP3K5 (human) = MAP3K5 (human) (UniProt Q99683); settings: compound 100.0 µM; ATP 50 µM
MAPK1 (human) = MAPK1 (human) (UniProt P28482); settings: compound 100.0 µM; ATP 20 µM
MAPK12 (human) = MAPK12 (human) (UniProt P53778); settings: compound 100.0 µM; ATP 5 µM
MAPK14 (human) = MAPK14 (human) (UniProt Q16539); settings: compound 100.0 µM; ATP 50 µM
MAPK15 (human) = MAPK15 (human) (UniProt Q8TD08); settings: compound 100.0 µM; ATP 5 µM
MAPK8 (human) = MAPK8 (human) (UniProt P45983); settings: compound 100.0 µM; ATP 20 µM
MAPKAPK2 (human) = MAPKAPK2 (human) (UniProt P49137); settings: compound 100.0 µM; ATP 20 µM
MARK2 (human) = MARK2 (human) (UniProt Q7KZI7); settings: compound 100.0 µM; ATP 20 µM
MARK4 (human) = MARK4 (human) (UniProt Q96L34); settings: compound 100.0 µM; ATP 50 µM
MKNK1 (human) = MKNK1 (human) (UniProt Q9BUB5); settings: compound 100.0 µM; ATP 50 µM
MKNK2 (human) = MKNK2 (human) (UniProt Q9HBH9); settings: compound 100.0 µM; ATP 50 µM
NEK6 (human) = NEK6 (human) (UniProt Q9HC98); settings: compound 100.0 µM; ATP 50 µM
PIM1 (human) = PIM1 (human) (UniProt P11309); settings: compound 100.0 µM; ATP 20 µM
PIM3 (human) = PIM3 (human) (UniProt Q86V86); settings: compound 100.0 µM; ATP 20 µM
PTK6 (human) = PTK6 (human) (UniProt Q13882); settings: compound 100.0 µM; ATP 20 µM
ROCK2 (rat) = settings: compound 100.0 µM; ATP 20 µM; accession and sequence are those of the human protein
RPS6KA5 KD1 KD2 (human) = RPS6KA5 KD1 KD2 (human) (UniProt O75582); settings: compound 100.0 µM; ATP 20 µM
SRC (human) = SRC (human) (UniProt P12931); settings: compound 100.0 µM; ATP 50 µM
TTK (human) = TTK (human) (UniProt P33981); settings: compound 100.0 µM; ATP 20 µM
YES1 (human) = YES1 (human) (UniProt P07947); settings: compound 100.0 µM; ATP 20 µM

NEK6 (human), sequence (Q9HC98 whole entry, looked up): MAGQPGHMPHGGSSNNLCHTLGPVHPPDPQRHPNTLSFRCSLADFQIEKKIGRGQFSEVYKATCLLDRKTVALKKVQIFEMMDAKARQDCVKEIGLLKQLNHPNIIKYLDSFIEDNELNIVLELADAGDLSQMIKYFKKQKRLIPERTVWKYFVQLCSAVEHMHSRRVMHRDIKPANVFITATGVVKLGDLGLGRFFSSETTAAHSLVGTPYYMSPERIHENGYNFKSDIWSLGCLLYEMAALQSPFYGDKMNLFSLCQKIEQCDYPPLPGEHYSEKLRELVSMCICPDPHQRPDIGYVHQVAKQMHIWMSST
TTK (human), sequence (P33981 whole entry, looked up): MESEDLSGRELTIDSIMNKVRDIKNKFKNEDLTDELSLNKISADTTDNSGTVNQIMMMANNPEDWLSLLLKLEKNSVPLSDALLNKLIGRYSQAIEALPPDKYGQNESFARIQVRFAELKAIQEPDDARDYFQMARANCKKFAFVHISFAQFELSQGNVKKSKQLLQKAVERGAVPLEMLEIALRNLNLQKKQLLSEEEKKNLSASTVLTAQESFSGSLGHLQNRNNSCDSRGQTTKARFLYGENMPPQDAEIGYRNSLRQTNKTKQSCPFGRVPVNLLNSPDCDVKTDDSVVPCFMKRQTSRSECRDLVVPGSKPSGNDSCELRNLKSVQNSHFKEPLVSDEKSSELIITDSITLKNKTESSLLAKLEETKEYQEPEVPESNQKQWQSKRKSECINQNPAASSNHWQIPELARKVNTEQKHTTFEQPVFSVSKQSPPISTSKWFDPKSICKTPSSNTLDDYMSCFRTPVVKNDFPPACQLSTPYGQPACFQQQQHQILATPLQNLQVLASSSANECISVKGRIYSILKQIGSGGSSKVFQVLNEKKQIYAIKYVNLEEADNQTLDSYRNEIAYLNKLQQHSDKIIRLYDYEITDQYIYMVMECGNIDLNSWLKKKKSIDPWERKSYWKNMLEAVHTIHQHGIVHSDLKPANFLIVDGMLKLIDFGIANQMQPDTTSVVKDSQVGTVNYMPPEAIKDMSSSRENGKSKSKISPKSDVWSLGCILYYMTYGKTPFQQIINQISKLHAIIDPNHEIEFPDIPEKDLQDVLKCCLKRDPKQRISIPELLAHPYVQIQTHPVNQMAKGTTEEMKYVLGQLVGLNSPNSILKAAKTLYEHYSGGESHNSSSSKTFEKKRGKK
MAPK15 (human), sequence (Q8TD08 whole entry, looked up): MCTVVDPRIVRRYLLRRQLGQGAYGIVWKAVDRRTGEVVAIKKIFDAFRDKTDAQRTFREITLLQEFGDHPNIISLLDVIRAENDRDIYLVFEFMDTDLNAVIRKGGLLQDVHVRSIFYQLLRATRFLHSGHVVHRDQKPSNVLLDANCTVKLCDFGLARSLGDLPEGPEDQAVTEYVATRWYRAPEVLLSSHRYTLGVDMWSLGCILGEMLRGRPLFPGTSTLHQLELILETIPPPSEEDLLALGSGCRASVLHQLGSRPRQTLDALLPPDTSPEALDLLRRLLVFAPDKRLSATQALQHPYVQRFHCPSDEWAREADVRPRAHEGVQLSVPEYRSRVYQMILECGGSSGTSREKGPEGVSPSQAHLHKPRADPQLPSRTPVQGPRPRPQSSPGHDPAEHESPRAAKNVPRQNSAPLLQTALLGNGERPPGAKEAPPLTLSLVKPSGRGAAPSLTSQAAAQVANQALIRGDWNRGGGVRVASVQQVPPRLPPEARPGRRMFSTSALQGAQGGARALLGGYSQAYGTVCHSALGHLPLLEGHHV
MARK4 (human), sequence (Q96L34 whole entry, looked up): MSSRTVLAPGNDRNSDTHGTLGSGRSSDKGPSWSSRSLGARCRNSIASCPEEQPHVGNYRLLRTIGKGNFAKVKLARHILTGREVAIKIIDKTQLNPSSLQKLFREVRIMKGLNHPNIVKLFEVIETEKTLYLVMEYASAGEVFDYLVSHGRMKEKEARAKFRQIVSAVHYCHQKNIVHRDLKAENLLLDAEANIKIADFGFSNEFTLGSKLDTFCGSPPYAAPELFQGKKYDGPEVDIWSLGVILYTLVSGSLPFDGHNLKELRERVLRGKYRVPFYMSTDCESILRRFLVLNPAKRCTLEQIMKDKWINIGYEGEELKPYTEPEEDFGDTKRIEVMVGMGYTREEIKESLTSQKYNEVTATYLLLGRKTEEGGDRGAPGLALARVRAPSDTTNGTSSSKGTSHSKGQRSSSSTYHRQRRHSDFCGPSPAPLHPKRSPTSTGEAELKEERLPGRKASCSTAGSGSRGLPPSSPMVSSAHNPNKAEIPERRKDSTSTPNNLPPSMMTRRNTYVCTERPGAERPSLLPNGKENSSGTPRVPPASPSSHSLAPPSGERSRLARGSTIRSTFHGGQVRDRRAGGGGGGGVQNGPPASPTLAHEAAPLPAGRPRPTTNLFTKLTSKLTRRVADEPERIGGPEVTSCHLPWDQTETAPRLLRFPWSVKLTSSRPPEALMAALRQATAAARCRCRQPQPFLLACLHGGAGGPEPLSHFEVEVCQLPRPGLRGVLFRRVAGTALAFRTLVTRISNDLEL
PIM1 (human), sequence (P11309 whole entry, looked up): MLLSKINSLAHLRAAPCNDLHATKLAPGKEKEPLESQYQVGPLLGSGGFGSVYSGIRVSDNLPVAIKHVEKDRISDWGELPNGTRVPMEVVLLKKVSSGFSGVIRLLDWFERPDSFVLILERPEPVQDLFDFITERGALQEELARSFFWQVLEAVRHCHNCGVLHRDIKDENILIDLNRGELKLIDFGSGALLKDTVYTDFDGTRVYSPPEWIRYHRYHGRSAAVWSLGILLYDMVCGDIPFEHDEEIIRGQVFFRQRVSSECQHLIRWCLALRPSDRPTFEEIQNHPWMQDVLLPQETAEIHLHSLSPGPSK
MAPK12 (human), sequence (P53778 whole entry, looked up): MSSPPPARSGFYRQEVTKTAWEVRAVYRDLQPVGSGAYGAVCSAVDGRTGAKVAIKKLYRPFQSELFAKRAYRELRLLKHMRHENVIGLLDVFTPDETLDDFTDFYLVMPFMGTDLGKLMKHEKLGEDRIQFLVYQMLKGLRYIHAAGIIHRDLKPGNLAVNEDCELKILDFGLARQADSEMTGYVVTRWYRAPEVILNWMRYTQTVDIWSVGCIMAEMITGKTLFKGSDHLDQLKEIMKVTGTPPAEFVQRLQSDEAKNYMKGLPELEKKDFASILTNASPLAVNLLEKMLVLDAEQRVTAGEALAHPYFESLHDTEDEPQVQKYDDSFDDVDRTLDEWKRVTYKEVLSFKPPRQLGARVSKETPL
MAPK14 (human), sequence (Q16539 whole entry, looked up): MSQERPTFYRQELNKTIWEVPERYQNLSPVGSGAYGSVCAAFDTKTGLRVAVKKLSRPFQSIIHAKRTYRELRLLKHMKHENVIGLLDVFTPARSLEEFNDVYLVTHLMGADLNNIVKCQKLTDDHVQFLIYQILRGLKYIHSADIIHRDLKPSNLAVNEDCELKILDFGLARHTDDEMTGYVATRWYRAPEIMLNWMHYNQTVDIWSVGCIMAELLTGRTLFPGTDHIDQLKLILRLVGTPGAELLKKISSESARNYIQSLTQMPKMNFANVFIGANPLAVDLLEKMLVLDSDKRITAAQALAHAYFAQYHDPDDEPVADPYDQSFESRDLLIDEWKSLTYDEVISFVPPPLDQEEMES
IGF1R (human), sequence (P08069 whole entry, looked up): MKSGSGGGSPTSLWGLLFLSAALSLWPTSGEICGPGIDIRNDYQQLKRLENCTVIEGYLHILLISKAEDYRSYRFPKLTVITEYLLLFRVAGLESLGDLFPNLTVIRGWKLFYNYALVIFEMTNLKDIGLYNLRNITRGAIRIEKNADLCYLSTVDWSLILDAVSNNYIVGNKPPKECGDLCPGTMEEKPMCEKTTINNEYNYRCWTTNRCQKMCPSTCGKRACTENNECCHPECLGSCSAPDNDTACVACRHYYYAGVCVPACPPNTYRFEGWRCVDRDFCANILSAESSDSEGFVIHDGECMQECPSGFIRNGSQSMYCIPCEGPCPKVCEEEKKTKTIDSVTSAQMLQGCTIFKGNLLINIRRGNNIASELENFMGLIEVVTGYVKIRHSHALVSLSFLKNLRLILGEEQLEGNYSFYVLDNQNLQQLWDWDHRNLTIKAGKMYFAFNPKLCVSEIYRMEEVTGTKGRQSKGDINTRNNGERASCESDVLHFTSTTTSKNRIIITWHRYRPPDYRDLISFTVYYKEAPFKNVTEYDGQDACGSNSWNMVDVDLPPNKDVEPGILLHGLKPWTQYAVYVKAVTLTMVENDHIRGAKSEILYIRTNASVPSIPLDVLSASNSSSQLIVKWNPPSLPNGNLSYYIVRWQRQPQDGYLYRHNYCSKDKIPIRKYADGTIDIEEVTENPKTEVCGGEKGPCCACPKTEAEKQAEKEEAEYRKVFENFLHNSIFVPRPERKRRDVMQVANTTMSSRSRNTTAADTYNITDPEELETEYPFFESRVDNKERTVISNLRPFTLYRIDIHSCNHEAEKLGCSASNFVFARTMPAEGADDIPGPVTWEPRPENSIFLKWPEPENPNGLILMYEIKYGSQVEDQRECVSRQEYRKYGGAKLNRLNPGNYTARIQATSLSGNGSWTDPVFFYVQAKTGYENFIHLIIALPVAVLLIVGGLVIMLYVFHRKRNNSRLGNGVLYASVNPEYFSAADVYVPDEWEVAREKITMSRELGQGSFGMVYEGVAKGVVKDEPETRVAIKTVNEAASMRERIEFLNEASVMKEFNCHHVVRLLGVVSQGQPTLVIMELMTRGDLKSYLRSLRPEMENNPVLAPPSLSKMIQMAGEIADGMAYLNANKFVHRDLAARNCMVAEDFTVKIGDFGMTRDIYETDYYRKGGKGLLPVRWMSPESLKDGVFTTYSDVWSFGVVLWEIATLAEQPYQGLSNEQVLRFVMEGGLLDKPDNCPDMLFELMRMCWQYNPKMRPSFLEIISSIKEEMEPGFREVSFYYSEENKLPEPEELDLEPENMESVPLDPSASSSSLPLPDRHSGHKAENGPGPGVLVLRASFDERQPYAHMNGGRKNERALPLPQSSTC

| Compound | inhibition [1] | inhibition (BRSK1 (human)) | inhibition (BTK (human)) | inhibition (CAMKK2 (human)) | inhibition (CHEK1 (human)) | inhibition (CSK (human)) | inhibition (CSNK2A1 (human)) | inhibition (DYRK1A (human)) | inhibition (DYRK3 (human)) | inhibition (EPHB1 (human)) | inhibition (ERBB4 (human)) | inhibition (HIPK1 (human)) | inhibition (IGF1R (human)) | inhibition (IKBKB (human)) | inhibition (INSR (human)) | inhibition (IRAK4 (human)) | inhibition (JAK2 JH1 JH2 (human)) | inhibition (MAP2K1 (human)) | inhibition (MAP2K2 (human)) | inhibition (MAP3K1 (human)) | also measured |
| --- | --- | --- | --- | --- | --- | --- | --- | --- | --- | --- | --- | --- | --- | --- | --- | --- | --- | --- | --- | --- | --- |
| CC(=O)Nc1nc2cnc(-c3ccccc3)cn2n1 | 22% | 23% | 28% | 41% | 18% | 29% | 11% | 43% | 69% | 22% | 19% | 16% | 11% | 10% | 60% | 39% | 25% | 34% | 6% | 9% | inhibition (MAP3K5 (human)): 25%; inhibition (MAPK1 (human)): 7%; inhibition (MAPK12 (human)): 24%; inhibition (MAPK14 (human)): 10%; inhibition (MAPK15 (human)): 88%; inhibition (MAPK8 (human)): 2%; inhibition (MAPKAPK2 (human)): 7%; inhibition (MARK2 (human)): 18%; inhibition (MARK4 (human)): 0%; inhibition (MKNK1 (human)): 53%; inhibition (MKNK2 (human)): 35%; inhibition (NEK6 (human)): 21%; inhibition (PIM1 (human)): 13%; inhibition (PIM3 (human)): 30%; inhibition (PTK6 (human)): 1%; inhibition (ROCK2 (rat)): 25%; inhibition (RPS6KA5 KD1 KD2 (human)): 11%; inhibition (SRC (human)): 18%; inhibition (TTK (human)): 4%; inhibition (YES1 (human)): 35% |
| Nc1nc2cnc(-c3ccccc3)cn2n1 | 32% | 27% | 67% | 54% | 45% | 71% | 55% | 77% | 76% | 48% | 83% | 28% | 91% | 27% | 97% | 80% | 76% | 37% | 35% | 34% | inhibition (MAP3K5 (human)): 32%; inhibition (MAPK1 (human)): 47%; inhibition (MAPK12 (human)): 1%; inhibition (MAPK14 (human)): 27%; inhibition (MAPK15 (human)): 74%; inhibition (MAPK8 (human)): 30%; inhibition (MAPKAPK2 (human)): 56%; inhibition (MARK2 (human)): 2%; inhibition (MARK4 (human)): 44%; inhibition (MKNK1 (human)): 71%; inhibition (MKNK2 (human)): 66%; inhibition (NEK6 (human)): 1%; inhibition (PIM1 (human)): 30%; inhibition (PIM3 (human)): 55%; inhibition (PTK6 (human)): 53%; inhibition (ROCK2 (rat)): 52%; inhibition (RPS6KA5 KD1 KD2 (human)): 19%; inhibition (SRC (human)): 48%; inhibition (TTK (human)): 34%; inhibition (YES1 (human)): 89% |
| O=C(Nc1cnc2[nH]ccn2c1=O)c1ccccc1 | 14% | 14% | 14% | 0% | 2% | 23% | 11% | 0% | 18% | 17% | 25% | 24% | 0% | 0% | 11% | 19% | 9% | 24% | 0% | 3% | inhibition (MAP3K5 (human)): 0%; inhibition (MAPK1 (human)): 10%; inhibition (MAPK12 (human)): 0%; inhibition (MAPK14 (human)): 2%; inhibition (MAPK15 (human)): 7%; inhibition (MAPK8 (human)): 0%; inhibition (MAPKAPK2 (human)): 29%; inhibition (MARK2 (human)): 0%; inhibition (MARK4 (human)): 13%; inhibition (MKNK1 (human)): 0%; inhibition (MKNK2 (human)): 25%; inhibition (NEK6 (human)): 15%; inhibition (PIM1 (human)): 0%; inhibition (PIM3 (human)): 0%; inhibition (PTK6 (human)): 30%; inhibition (ROCK2 (rat)): 11%; inhibition (RPS6KA5 KD1 KD2 (human)): 4%; inhibition (SRC (human)): 8%; inhibition (TTK (human)): 0%; inhibition (YES1 (human)): 11% |

The next lines start with results.

| inhibition [1] | inhibition (BRSK1 (human)) | inhibition (BTK (human)) | inhibition (CAMKK2 (human)) | inhibition (CHEK1 (human)) | inhibition (CSK (human)) | inhibition (CSNK2A1 (human)) | inhibition (DYRK1A (human)) | inhibition (DYRK3 (human)) | inhibition (EPHB1 (human)) | inhibition (ERBB4 (human)) | inhibition (HIPK1 (human)) | inhibition (IGF1R (human)) | inhibition (IKBKB (human)) | inhibition (INSR (human)) | inhibition (IRAK4 (human)) | inhibition (JAK2 JH1 JH2 (human)) | inhibition (MAP2K1 (human)) | inhibition (MAP2K2 (human)) | inhibition (MAP3K1 (human)) | Compound | also measured |
| --- | --- | --- | --- | --- | --- | --- | --- | --- | --- | --- | --- | --- | --- | --- | --- | --- | --- | --- | --- | --- | --- |
| 31% | 0% | 6% | 34% | 0% | 0% | 9% | 0% | 7% | 0% | 19% | 6% | 0% | 11% | 0% | 0% | 3% | 0% | 0% | 0% | CC(C)(C)Nc1c(C2CC2)nc2[nH]cnn12 | inhibition (MAP3K5 (human)): 4%; inhibition (MAPK1 (human)): 0%; inhibition (MAPK12 (human)): 0%; inhibition (MAPK14 (human)): 0%; inhibition (MAPK15 (human)): 60%; inhibition (MAPK8 (human)): 0%; inhibition (MAPKAPK2 (human)): 0%; inhibition (MARK2 (human)): 0%; inhibition (MARK4 (human)): 15%; inhibition (MKNK1 (human)): 0%; inhibition (MKNK2 (human)): 9%; inhibition (NEK6 (human)): 0%; inhibition (PIM1 (human)): 11%; inhibition (PIM3 (human)): 0%; inhibition (PTK6 (human)): 25%; inhibition (ROCK2 (rat)): 2%; inhibition (RPS6KA5 KD1 KD2 (human)): 0%; inhibition (SRC (human)): 0%; inhibition (TTK (human)): 10%; inhibition (YES1 (human)): 0% |
| 39% | 0% | 51% | 28% | 0% | 0% | 5% | 30% | 17% | 0% | 53% | 0% | 0% | 9% | 4% | 0% | 11% | 0% | 11% | 0% | CC(C)(C)Nc1c(COCc2ccccc2)nc2[nH]cnn12 | inhibition (MAP3K5 (human)): 2%; inhibition (MAPK1 (human)): 0%; inhibition (MAPK12 (human)): 0%; inhibition (MAPK14 (human)): 5%; inhibition (MAPK15 (human)): 1%; inhibition (MAPK8 (human)): 2%; inhibition (MAPKAPK2 (human)): 2%; inhibition (MARK2 (human)): 13%; inhibition (MARK4 (human)): 22%; inhibition (MKNK1 (human)): 0%; inhibition (MKNK2 (human)): 0%; inhibition (NEK6 (human)): 0%; inhibition (PIM1 (human)): 30%; inhibition (PIM3 (human)): 18%; inhibition (PTK6 (human)): 21%; inhibition (ROCK2 (rat)): 0%; inhibition (RPS6KA5 KD1 KD2 (human)): 0%; inhibition (SRC (human)): 12%; inhibition (TTK (human)): 7%; inhibition (YES1 (human)): 4% |
